From ChEMBL document CHEMBL5223091, “Targeting the Mitotic Kinesin KIF18A in Chromosomally Unstable Cancers: Hit Optimization Toward an In Vivo Chemical Probe” (J Med Chem, 2022)
Active and inactive are the calls of the source. The rule behind the calls is not given here.

Tests used:
[1] = Passive permeability across apical to basolateral side in dog MDCK-MDR1 cells at 5 uM; type: ADME, cell-based, Canis lupus familiaris; settings: read-out: permeability
[2] = test system: OVCAR-3; experiment: Antiproliferative activity against human OVCAR-3 cells by nuclear count assay; type: functional, cell-based
[3] = Plasma concentration in CD-1 mouse at 100 mg/kg, po measured after 24 hrs; type: ADME, organism-based
[4] = Unbound fraction in CD-1 mouse plasma xenografted with human OVCAR-3 cells at 100 mg/kg, ip by LC-MS/MS analysis; type: ADME, organism-based
[5] = biological target: T1, Kinesin-like protein KIF11 (Homo sapiens, UniProt P52732); experiment: Inhibition of recombinant GST-tagged human Eg5 assessed as inhibition of microtubule-stimulated ATPase activity preincubated for 30 mins followed by ATP addition and further incubated for 15 mins by ADP-Glo reagent based assay
T1 sequence (P52732 whole entry): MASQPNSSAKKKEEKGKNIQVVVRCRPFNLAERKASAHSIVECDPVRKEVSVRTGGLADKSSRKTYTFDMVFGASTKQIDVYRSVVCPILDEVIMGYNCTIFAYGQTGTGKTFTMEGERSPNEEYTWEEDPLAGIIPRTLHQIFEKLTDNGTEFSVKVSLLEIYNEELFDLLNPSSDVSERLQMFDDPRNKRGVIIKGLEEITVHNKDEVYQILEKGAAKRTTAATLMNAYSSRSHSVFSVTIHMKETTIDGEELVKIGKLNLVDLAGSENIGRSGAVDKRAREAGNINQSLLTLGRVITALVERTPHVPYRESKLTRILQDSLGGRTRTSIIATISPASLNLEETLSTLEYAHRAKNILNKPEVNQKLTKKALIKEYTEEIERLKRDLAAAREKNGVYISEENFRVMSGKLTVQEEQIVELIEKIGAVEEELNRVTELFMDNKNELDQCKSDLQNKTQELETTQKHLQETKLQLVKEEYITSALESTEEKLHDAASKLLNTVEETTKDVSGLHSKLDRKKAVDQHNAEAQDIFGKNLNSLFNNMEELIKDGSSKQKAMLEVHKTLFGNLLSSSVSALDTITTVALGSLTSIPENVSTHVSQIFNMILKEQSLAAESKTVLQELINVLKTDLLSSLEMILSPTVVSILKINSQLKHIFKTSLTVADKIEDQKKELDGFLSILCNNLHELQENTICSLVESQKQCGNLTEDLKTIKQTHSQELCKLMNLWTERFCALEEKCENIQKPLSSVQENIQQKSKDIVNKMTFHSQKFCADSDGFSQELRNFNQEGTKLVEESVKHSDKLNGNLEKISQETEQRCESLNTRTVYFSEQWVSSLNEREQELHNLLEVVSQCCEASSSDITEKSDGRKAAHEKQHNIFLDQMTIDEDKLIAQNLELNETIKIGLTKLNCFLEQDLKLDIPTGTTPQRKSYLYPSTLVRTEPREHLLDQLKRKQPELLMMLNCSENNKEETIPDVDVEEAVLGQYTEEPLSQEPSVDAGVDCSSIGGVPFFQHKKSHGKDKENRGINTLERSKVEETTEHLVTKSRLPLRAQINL

[6] = Half life in CD-1 mouse at 1 mg/kg, iv and 10 mg/kg, po; type: ADME, organism-based; settings: in vivo
[7] = Plasma concentration in CD-1 mouse xenografted with human OVCAR-3 cells at 100 mg/kg, po measured upto 24 hrs by LC-MS/MS analysis; type: ADME, organism-based
[8] = Cmax in CD-1 mouse at 1 mg/kg, iv and 10 mg/kg, po; type: ADME, organism-based; design: dose 10 mg/kg, route po; settings: in vivo
[9] = Unbound fraction in plasma (unknown origin) by ultracentrifugation; type: ADME, cell-free
[10] = Cmax in CD-1 mouse xenografted with human OVCAR-3 cells at 100 mg/kg, po by LC-MS/MS analysis; type: ADME, organism-based; design: dose 100 mg/kg, route po; settings: in vivo
[11] = AUC (0 to 24 hrs) in CD-1 mouse xenografted with human OVCAR-3 cells at 100 mg/kg, ip by LC-MS/MS analysis; type: ADME, organism-based; design: dose 100 mg/kg, route ip; settings: in vivo
[12] = Metabolic stability in human liver microsomes assessed as intrinsic clearance at 0.5 uM incubated upto 40 mins by LCMS analysis; type: ADME, Microsome; settings: read-out: CLH
[13] = test system: OVCAR-3; experiment: Antimitotic activity in human OVCAR-3 cells xenografted in CD-1 mouse assessed as increase in phospho-histone H3 positive cells in tumor at 100 mg/kg, po measured after 8 hrs; type: functional, organism-based
[14] = Metabolic stability in mouse liver microsomes assessed as intrinsic clearance at 0.5 uM incubated upto 40 mins by LCMS analysis; type: ADME, Microsome; settings: read-out: CLH

- Papp A→B at 5 µM [1]: < 0.3 ×10⁻⁶ cm/s
- EC50 [2]: 32 nM
- concentration at 24 h [3]: 30 nM
- fraction unbound [4]: 0.022
- IC50 [5]: > 100000 nM
- half-life [6]: 1.7 h
- concentration at 24 h [7]: 16 nM
- Cmax [8]: 2150 nM
- fraction unbound [9]: 0.022
- Cmax [10]: 6100 nM
- AUC(0-t) [11]: 116 µM·h
- microsomal CLint at 0.5 µM [12]: 127 µL/min/mg
- microsomal CLint at 0.5 µM [14]: 64 µL/min/mg
SMILES: CC(C)(C)NS(=O)(=O)c1cccc(NC(=O)c2ncc(NS(C)(=O)=O)nc2N2CCC3(CC2)CC3)n1
- Activity [13]: Active
